Results reported in US20040034052A1, “Tricyclic derivatives of indole with antiangiogenic activity” (priority 2003, published 2004).
Where two headings read alike, the source gives them in different places.

Columns and labels:
[1] = Cytotoxicity on endothelial cells (BMEC); format: cell-based, bovine; conditions: bovine, BMEC (bovine medullary endothelial cell) cultures
[2] = tested on: BMEC (bovine medullary endothelial cell); test: Cytotoxicity on endothelial cells (BMEC); format: cell-based; conditions: BMEC
[3] = tested on: BMEC (bovine medullary endothelial cell); test: Chemotactic assay with the Boyden chamber on BMEC; format: cell-based; conditions: for % inhibition of migration at IC0/D.S.: BMEC, at IC0, chemotactic stimulus 1% bovine serum in DMEM
Experimental: For the antiangiogenic activity the chemotactic assay with the Boyden chamber was performed (Werner F., Goodwin R. H. and Leonard E. J., Journal of Immunological Methods 1980; 33, 239-247), using both bovine aortal endothelial cell (BAEC) cultures and bovine medullary endothelial cell (BMEC) cultures. The assays were performed at IC0 (maximum non-cytotoxic concentration) and the results expressed as % inhibition of migration across a porous filter in response to a chemotactic stimulus (1% bovine serum in DMEM culture medium). This finding was obtained by direct cell count under the optical microscope, and the percentage migration inhibition was calculated according to the formula (T−C/C)×100, where T=mean number of cells migrating in the sample and C=mean number of cells migrating in the control. The control consisted of cells which migrated towards the serum, not treated with the study molecules, and included in every chemotaxis experiment. The data refer to the readings of 5 microscopic fields/well in 4 independent chemotaxis wells per sample.

[4] = tested on: MCF-7 (human mammary carcinoma); test: Sulforodamine B antiproliferative test, sensitive MCF-7 cells; format: cell-based; conditions: MCF7, MCF-7 sensitive, 24 hours incubation, survival after another 48 hours, read-out: IC50 +/− SD, antiproliferative activity vs sensitive cell, MCF-7
Experimental: (§1) For the cytotoxic activity, proliferation screening tests were used, with different tumour lines, such as MCF-7 (human mammary carcinoma), LoVo (human colon carcinoma), MES-SA (human uterine sarcoma), or K-562 (human chronic myeloid leukaemia).
(§2) The test used was the sulforodamine B test used for screening anticancer products at the National Cancer Institute (Skehan, 1990). The molecules at scalar concentrations over a range from 500 μM to 0.97 μM, were incubated in parallel with different human cell lines for 24 hours. After removing the products, cell survival was investigated after another 48 hours with the NCI test. The antiproliferative capacity of the compounds was quantified in terms of IC50±SD (concentration of the molecule that inhibits 50% of cell survival) processed using a curve fitting program (De Lean et al., 1978).

[5] = tested on: LoVo (human colon carcinoma); test: Sulforodamine B antiproliferative test, sensitive LoVo cells; format: cell-based; conditions: 24 hours incubation, survival after another 48 hours, read-out: IC50 +/− SD, antiproliferative activity vs sensitive cell, LoVo
Experimental: as §1, §2

[6] = tested on: MCF-7 resistant cell (MCF-7/Dx, overexpressing P-glycoprotein, resistant to doxorubicin); test: Antiproliferative activity vs resistant cells, MCF-7; format: cell-based; conditions: Homo sapiens, MCF7; MCF-7 resistant (doxorubicin-resistant); read-out: IC50 +/− SD, antiproliferative activity vs resistent cell, MCF-7
Experimental: as §2
(§3) The cytotoxicity of the molecules on tumour lines resistant to chemosensitising activity was assessed on various tumour cell lines overexpressing P-glycoprotein and resistant to doxorubicin (100-fold) and cross-resistant to daunorubicin, actinomycin D, mitoxantrone, vincristine, vinblastine, taxol, colchicine, and etoposide. The cytotoxicity of the products was assessed using the same test adopted for the sensitive tumour cells.

[7] = tested on: LoVo resistant cell (LoVo/Dx, overexpressing P-glycoprotein, resistant to doxorubicin); test: Antiproliferative activity vs resistant cells, LoVo; format: cell-based; conditions: Homo sapiens, read-out: IC50 +/− SD, antiproliferative activity vs resistent cell, LoVo
Experimental: as §2, §3

[8] = tested on: MCF-7 cells; test: Cell cycle and apoptosis analysis (propidium iodide, FACS) on MCF-7 cells; format: cell-based, human
Experimental: The cell cycle and apoptosis analysis on a tumour line was done by incubating the products for 24 hours at a concentration equal to approximately the IC50 Values with MCF-7 cells. The molecules were removed and the cell cycle and apoptosis were assessed at different times (0, 24, 48 hours). The cells were stained with propidium iodide and analysed with a cytofluorimeter (FACS) ([…] fluorescence activated cell sorter) by means of an argon ion laser set at 488 nm for the excitation. To assess the percentage of cells in the various stages of the cycle, linear DNA histograms were analysed with a cell fit program distributed by the equipment manufacturer. For the analysis of apoptosis, a region was inserted below the G0/G1 peak of the control population and the data were analysed with software supplied by the company (Lysis II-C32).

[9] = tested on: MCF-7/Dx line; test: Potentiation of doxorubicin cytotoxicity (MDR ratio), MCF-7/Dx; format: cell-based, human; conditions: compound at 11 μM
Experimental: as §3
(§4) Later, the products were assayed at a concentration lower than or equal to the one that inhibits 10% of cell survival. At this concentration, the molecules were tested in parallel in the absence and presence of doxorubicin. MDR ratios were calculated for the IC50 values in order to establish the degree of potentiation of the cytotoxic activity of doxorubicin induced by the product (MDR ratio) (De Lean et al. (1978) A. J. Physiol. 235, E97-102); (Skehan et al. (1990) J. Natl. Cancer Inst. 82, 1107-1112).

[10] = tested on: LoVo/Dx cell line; test: Potentiation of doxorubicin cytotoxicity (MDR ratio), LoVo/Dx; format: cell-based, human; conditions: compound at 11 μM
Experimental: as §3, §4

[11] = read-out: IC50 (μM), cytotoxicity on BMEC

| Compound | IC50 [1, 11] [µM] | IC0 (μM) (maximum non-cytotoxic concentration) [2] [µM] | % inhibition of migration at IC0/D.S. [3] | melting point | IC50 [4] [µM] | IC50 [5] [µM] | IC50 [6] [µM] | IC50 [7] [µM] | further results |
| --- | --- | --- | --- | --- | --- | --- | --- | --- | --- |
| c1[nH]c2cc3c(cc2c1C1CCCCc2c1[nH]c1cc4c(cc21)OCO4)OCO3 (racemic) [ST1749, 1-(5″, 6″-methylendioxy-indol-3-yl)-5′,6′-methyleridioxy-indo [2,3-a]-cycloeptane] | > 200 | 100 | −40 +/− 3% | 184 °C (dec.) | – | – | – | – | – |
| Oc1ccc2[nH]cc(C3CCCCc4c3[nH]c3ccc(O)cc43)c2c1 (racemic) [ST1783, 1-(5″-hydroxy-1H-indol-3-yl)-5′-hydroxy-indo[2,3a]-cycloheptan.] | 60 | 10 | −46% | – | 27 | 29 | 39 | – | – |
| c1ccc(COc2ccc3[nH]cc(C4CCCCc5c4[nH]c4ccc(OCc6ccccc6)cc54)c3c2)cc1 (racemic) [ST1765, 1-(5″-benzyloxy-indol-3-yl)-5′-benzyloxy-indo[2,3a]-cycloheptan.] | – | – | – | 286 °C (dec.) | 11.5 | 10.5 | 24.8 | 17 | – |
| c1ccc(COc2ccc3[nH]cc(C4CCCCc5[nH]c6ccc(OCc7ccccc7)cc6c54)c3c2)cc1 (racemic) [ST1778, 5-(5″-benzyloxy-indol-3-yl)-5′-benzyloxy-indo[2,3a]-cycloheptan.] | 50 | 25 | −40 +/− 4% | – | 28.5 | 54.5 | 71 | 65.1 | – |
| c1[nH]c2cc3c(cc2c1C1CCCc2[nH]c4cc5c(cc4c21)OCO5)OCO3 (racemic) [ST1777, 4-(5′,6′-methylendioxy-1H-indol-3-yl)-6,7-methylendioxy-tetrahydro-1H-carbazole] | – | – | – | – | 0.96 | 0.64 | – | – | – |
| OCCCCC(c1cc2cc3c(cc2[nH]1)OCO3)c1c[nH]c2cc3c(cc12)OCO3 (racemic) [ST1423, (R,S)-5-hydroxy-1,1-di-(5′,6′-methylendioxy-indol-2-yl,5 ″,6″-methylendioxy-indol-3-yl)-pentane] | – | – | – | 220 °C (dec.) | – | – | – | – | – |
| c1ccc2c(C3CCCc4c3[nH]c3ccccc43)c[nH]c2c1 (racemic) [ST1728, 1-(1H-indol-3-yl)-tetrahydro-1H-carbazole] | – | – | – | 207 °C | 22 | 22.8 | – | – | – |
| OCCCC(c1c[nH]c2cc3c(cc12)OCO3)c1c[nH]c2cc3c(cc12)OCO3 [ST1730, 4-hydroxy-1,1-di-(5′,6′-methylendioxy-indol-3-yl)-butane] | – | – | – | 240 °C (dec.) | – | – | – | – | – |
| c1ccc2c(C3CCCc4[nH]c5ccccc5c43)c[nH]c2c1 (racemic) [ST1729, 4-(1H-indol-3-yl)-tetrahydro-1H-carbazole] | 80 | 25 | −40 +/− 3% | 182 °C | 35 | 50.5 | – | – | – |
| CC1(C)OCC(C2c3c([nH]c4ccccc34)C(c3c[nH]c4ccccc34)C3OC(C)(C)OC32)O1 (racemic) [ST1372, 1-(indol-3-yl)-2,3-O-isopropylidene-4-(2,3-O-isopropylidene-ethyl)-tetrahydrocarbazole] | – | – | – | 204 to 206 °C (dec.) | 21.1 | 21.7 | 21.1 | 21.7 | increases and blocks in G0/G1 (% of the cell) ([8]; MCF-7, 20 μM, relative to control): 23%; increases and blocks in G0/G1 (% of the cell) ([8]; MCF-7, 40 μM, relative to control): 32%; G0/G1 (%) ([8]; MCF-7, compound at 20 μM): 20 μM = 54.4%; G2 + M (%) ([8]; MCF-7, compound at 20 μM): 20 μM = 11.4%; S(%) ([8]; MCF-7, compound at 20 μM): 20 μM = 34.2%; G0/G1 (%) ([8]; MCF-7, compound at 40 μM): 40 μM = 57.8%; G2 + M (%) ([8]; MCF-7, compound at 40 μM): 40 μM = 5.4%; S(%) ([8]; MCF-7, compound at 40 μM): 40 μM = 36.8%; Apoptosis 48 h (%) ([8]; MCF-7, compound at 40 μM): 40 μM = 16%; increase of the activity of Doxorubicin (MDR ratio) [9]: 3,5 times; increase of the activity of Doxorubicin (MDR ratio) [10]: 3,5 times |
| c1[nH]c2cc3c(cc2c1C1CCCc2c1[nH]c1cc4c(cc21)OCO4)OCO3 (racemic) [ST1751, 1-(5′,6′-methylendioxy-1H-indol-3-yl)-6,7-methylendioxy-tetrahydro-1H-carbazole] | – | – | – | 200 °C (dec.) | – | – | 58.6 | – | – |
| c1ccc2c(C3CCCCc4c3[nH]c3ccccc43)c[nH]c2c1 (racemic) [ST1381, 1-(indol-3-yl)-indo [2,3a]-cycloheptan.] | – | 30 | −61.7% | – | 28.5 | 22.5 | 28.4 | 25.2 | increases and blocked in G0/G1 (% of the cell line) ([8]; MCF-7, 30 μM, relative to control): 32%; G0/G1 (%) ([8]; MCF-7, compound at 30 μM): 30 μM = 57.7%; G2 + M (%) ([8]; MCF-7, compound at 30 μM): 30 μM = 10.1%; S(%) ([8]; MCF-7, compound at 30 μM): 30 μM = 32.2%; Apoptosis 48 h (%) ([8]; MCF-7, compound at 30 μM): 30 μM = 3.3%; IC50 ([1]; endothelial cell, read-out: cytotoxicity vs endotelial cell (IC)): > 100 µM; IC50 [2]: > 100 µM; chemotaxis of endothelial cells (in words) [3]: active for the chemotaxys; chemotaxis of endothelial cells (in words) ([3]; listed as ST 1381): the better anti-chemiotactic compound |
| OCCCCC(c1c[nH]c2cc3c(cc12)OCO3)c1c[nH]c2cc3c(cc12)OCO3 [ST1422, 5-hydroxy-1,1-di-(5,6-methylendioxy-indol-3-yl)-pentane] | – | – | – | 200 °C (dec.) | – | – | – | – | – |
| c1ccc2c(C3CCCCc4[nH]c5ccccc5c43)c[nH]c2c1 (racemic) [ST1621, 5-(indol-3-yl)-indo [2,3a]-cycloheptan.] | 10 | 0.1 | −43 +/− 4% | – | 22.5 | 34.8 | 68.3 | 23.8 | – |
